Measurements taken from DBAASP.
In brackets after ≈: the same amount, converted by molar mass.

What was measured:
Test in all cases: ≥ marks a high value that may be exact or a test limit, other limits are often not marked, values filed in µg/mL are converted to µM
[1] = system: Staphylococcus aureus ATCC 29213
[2] = system: Staphylococcus aureus ATCC 700699
[3] = system: Klebsiella pneumoniae ATCC 700603
[4] = system: Pseudomonas aeruginosa ATCC 27853
[5] = system: Staphylococcus aureus ATCC 33591
[6] = system: Escherichia coli ATCC 25922
[7] = system: Staphylococcus aureus ATCC BAA-1556
[8] = system: Escherichia coli BW25113
[9] = system: Salmonella enterica subsp. enterica serovar Typhimurium C77-31
[10] = system: Staphylococcus epidermidis ATCC 12228
[11] = system: Enterococcus faecalis ATCC 29212
[12] = system: Salmonella enterica subsp. enterica serovar Pullorum C79-13
[13] = system: Staphylococcus aureus ATCC 12600
[14] = system: Escherichia coli ATCC 11775

SMILES: CC[C@H](C)[C@H](NC(=O)[C@H](CC(=O)O)NC(=O)[C@H](CCCCN)NC(=O)[C@H](CC(C)C)NC(=O)[C@H](C)NC(=O)CNC(=O)[C@H](CCCCN)NC(=O)[C@H](CC(C)C)NC(=O)[C@@H](NC(=O)[C@H](CC(=O)O)NC(=O)[C@@H](NC(=O)[C@@H](NC(=O)CN)C(C)C)C(C)C)[C@@H](C)CC)C(=O)N[C@@H](C)C(=O)NCC(=O)N[C@@H](Cc1cnc[nH]1)C(=O)N[C@@H](CC(C)C)C(=O)N[C@@H](C)C(=O)N[C@@H](CO)C(=O)N[C@@H](CCCCN)C(=O)N[C@H](C(=O)N[C@@H](CCSC)C(=O)N[C@@H](CC(N)=O)C(=O)N[C@@H](CCCCN)C(=O)N[C@@H](CC(C)C)C(N)=O)C(C)C [GVVDILKGALKDIAGHLASKVMNKL]
- MIC [1]: 100 µM (≈ 259 µg/mL)
- MIC [2]: ≥ 50 µM
- MIC [3]: 50 µM (≈ 130 µg/mL)
- MIC [4]: 50 µM (≈ 130 µg/mL)
- MIC [5]: 25 µM (≈ 64.8 µg/mL)
- MIC [6]: 12.5 µM (≈ 32.4 µg/mL)

SMILES: CC(C)C[C@H](NC(=O)[C@H](CC(C)C)NC(=O)[C@H](CC(C)C)NC(=O)[C@H](CC(C)C)NC(=O)[C@H](CC(C)C)NC(=O)[C@H](CCCCN)NC(=O)[C@H](CC(C)C)NC(=O)[C@@H](N)CC(C)C)C(=O)N[C@@H](CCCCN)C(N)=O [LLKLLLLLK]
- MIC [7]: ≥ 100 µM

SMILES: CC[C@H](C)[C@H](NC(=O)[C@@H]1CCCN1C(=O)[C@H](Cc1c[nH]c2ccccc12)NC(=O)[C@H](CCCN=C(N)N)NC(=O)[C@H](Cc1c[nH]c2ccccc12)NC(=O)[C@@H](N)CCCN=C(N)N)C(=O)N[C@@H](CCCN=C(N)N)C(=O)N[C@@H](CCCN=C(N)N)C(=O)N[C@@H](CCCN=C(N)N)C(=O)N1CCC[C@H]1C(=O)N[C@H](C(=O)N[C@@H](CCCN=C(N)N)C(=O)N1CCC[C@H]1C(=O)N1CCC[C@H]1C(=O)N[C@@H](Cc1c[nH]c2ccccc12)C(=O)N[C@@H](Cc1ccc(O)cc1)C(=O)N[C@@H](CCCN=C(N)N)C(=O)O)[C@@H](C)CC [RWRWPIRRRPIRPPWYR]
- MIC [8]: 4 µM (≈ 9.79 µg/mL)

SMILES: CC(C)C[C@H](NC(=O)[C@H](CC(C)C)NC(=O)[C@H](CC(C)C)NC(=O)[C@H](CC(C)C)NC(=O)[C@H](CC(C)C)NC(=O)[C@H](CC(C)C)NC(=O)[C@H](CCCCN)NC(=O)[C@H](CC(C)C)NC(=O)[C@@H](N)CC(C)C)C(N)=O [LLKLLLLLL]
- MIC [7]: ≥ 100 µM

SMILES: NCCCC[C@H](NC(=O)CNC(=O)[C@H](CC(N)=O)NC(=O)[C@H](CCC(=O)O)NC(=O)[C@H](Cc1c[nH]c2ccccc12)NC(=O)[C@H](CCCCN)NC(=O)[C@H](Cc1c[nH]c2ccccc12)NC(=O)[C@H](CCCCN)NC(=O)[C@@H](N)Cc1c[nH]c2ccccc12)C(=O)N[C@@H](Cc1c[nH]c2ccccc12)C(=O)N[C@@H](CCCCN)C(=O)N[C@@H](Cc1c[nH]c2ccccc12)C(=O)N[C@@H](CCCCN)C(=O)N[C@@H](Cc1c[nH]c2ccccc12)C(=O)O [WKWKWENGKWKWKW]
- MIC [1]: 32 µM (≈ 66.4 µg/mL)
- MIC [9]: ≥ 32 µM
- MIC [6]: 2 µM (≈ 4.15 µg/mL)
- MIC [10]: 32 µM (≈ 66.4 µg/mL)
- MIC [11]: 64 µM (≈ 133 µg/mL)
- MIC [12]: 8 µM (≈ 16.6 µg/mL)

SMILES: CC[C@H](C)[C@H](NC(=O)[C@H](CC(=O)O)NC(=O)[C@H](CCCCN)NC(=O)[C@H](C)NC(=O)[C@H](C)NC(=O)CNC(=O)[C@H](CCCCN)NC(=O)[C@H](CC(C)C)NC(=O)[C@@H](NC(=O)[C@H](CC(=O)O)NC(=O)[C@@H](NC(=O)[C@H](C)NC(=O)CN)C(C)C)[C@@H](C)CC)C(=O)N[C@@H](C)C(=O)NCC(=O)N[C@@H](Cc1cnc[nH]1)C(=O)N[C@@H](CC(C)C)C(=O)N[C@@H](C)C(=O)N[C@@H](CO)C(=O)N[C@@H](CCCCN)C(=O)N[C@H](C(=O)N[C@@H](CCSC)C(=O)N[C@@H](CC(N)=O)C(=O)N[C@@H](CCCCN)C(=O)N[C@@H](CC(C)C)C(N)=O)C(C)C [GAVDILKGAAKDIAGHLASKVMNKL]
- MIC [1]: > 100 µM
- MIC [2]: ≥ 100 µM
- MIC [3]: > 100 µM
- MIC [4]: > 100 µM
- MIC [5]: ≥ 100 µM
- MIC [6]: > 100 µM

SMILES: CC[C@H](C)[C@H](NC(=O)[C@H](Cc1c[nH]c2ccccc12)NC(=O)[C@H](CCCN=C(N)N)NC(=O)[C@H](CCCN=C(N)N)NC(=O)[C@H](CC(C)C)NC(=O)[C@@H](N)CCCCN)C(=O)N[C@@H](CCCN=C(N)N)C(=O)N[C@@H](Cc1c[nH]c2ccccc12)C(=O)N[C@@H](CC(C)C)C(N)=O [KLRRWIRWL]
- MIC [7]: 25 µM (≈ 33.1 µg/mL)

SMILES: CC(C)C[C@H](NC(=O)[C@H](C)NC(=O)[C@H](CC(C)C)NC(=O)[C@@H]1CCCN1C(=O)[C@H](Cc1ccccc1)NC(=O)[C@@H](N)Cc1ccccc1)C(=O)N[C@@H](CC(C)C)C(=O)N[C@H]1CSSC[C@@H](C(=O)O)NC(=O)[C@H](CCCCN)NC(=O)[C@H](CCCCN)NC(=O)[C@H](Cc2ccccc2)NC(=O)[C@H](C(C)C)NC(=O)[C@H](CCCCN)NC1=O [FFPLALLCKVFKKC]
- MIC [13]: ≥ 100 µM
- MIC [14]: 25 µM (≈ 41.4 µg/mL)

SMILES: CC(C)C[C@H](NC(=O)[C@H](Cc1c[nH]c2ccccc12)NC(=O)[C@H](Cc1c[nH]c2ccccc12)NC(=O)[C@H](CC(C)C)NC(=O)[C@H](Cc1c[nH]c2ccccc12)NC(=O)[C@@H](N)Cc1c[nH]c2ccccc12)C(=O)N[C@@H](CCCN=C(N)N)C(N)=O [WWLWWLR]
- MIC [7]: 12.5 µM (≈ 14.3 µg/mL)

SMILES: NCCCC[C@H](NC(=O)[C@H](Cc1c[nH]c2ccccc12)NC(=O)[C@H](Cc1c[nH]c2ccccc12)NC(=O)[C@H](CCCCN)NC(=O)[C@@H](N)CCCN=C(N)N)C(N)=O [RKWWK]
- MIC [13]: ≥ 77.8 µM
- MIC [6]: > 77.8 µM

SMILES: CC[C@H](C)[C@H](NC(=O)[C@H](Cc1c[nH]c2ccccc12)NC(=O)[C@H](CCCN=C(N)N)NC(=O)[C@H](CCCN=C(N)N)NC(=O)[C@H](Cc1c[nH]c2ccccc12)NC(=O)[C@@H](N)CCCCN)C(=O)N[C@@H](CCCN=C(N)N)C(N)=O [KWRRWIR]
- MIC [7]: ≥ 100 µM

SMILES: CC[C@H](C)[C@H](NC(=O)[C@@H]1CCCN1C(=O)[C@H](CCCN=C(N)N)NC(=O)[C@H](CCCN=C(N)N)NC(=O)[C@H](Cc1c[nH]c2ccccc12)NC(=O)[C@@H](N)CCCN=C(N)N)C(=O)N[C@@H](CCCN=C(N)N)C(=O)N[C@@H](CCCN=C(N)N)C(=O)N[C@@H](CCCN=C(N)N)C(=O)N1CCC[C@H]1C(=O)N[C@H](C(=O)N[C@@H](CCCN=C(N)N)C(=O)N1CCC[C@H]1C(=O)N1CCC[C@H]1C(=O)N[C@@H](Cc1ccccc1)C(=O)N[C@@H](Cc1ccc(O)cc1)C(=O)N1CCC[C@H]1C(=O)O)[C@@H](C)CC [RWRRPIRRRPIRPPFYP]
- MIC [8]: 8 µM (≈ 18.6 µg/mL)

SMILES: CC[C@H](C)[C@H](NC(=O)[C@H](Cc1ccccc1)NC(=O)[C@H](CS)NC(=O)[C@@H](NC(=O)[C@H](CO)NC(=O)[C@@H](N)Cc1ccc(O)cc1)[C@@H](C)O)C(=O)N[C@@H](CCSC)C(=O)NCC(=O)NCC(=O)NCC(=O)N[C@@H](Cc1c[nH]c2ccccc12)C(=O)N[C@@H](CCCCN)C(=O)N[C@@H](Cc1c[nH]c2ccccc12)C(=O)N[C@@H](CCCCN)C(=O)N[C@@H](Cc1c[nH]c2ccccc12)C(=O)N[C@@H](CCC(=O)O)C(=O)N[C@@H](CC(N)=O)C(=O)NCC(=O)N[C@@H](CCCCN)C(=O)N[C@@H](Cc1c[nH]c2ccccc12)C(=O)N[C@@H](CCCCN)C(=O)N[C@@H](Cc1c[nH]c2ccccc12)C(=O)N[C@@H](CCCCN)C(=O)N[C@@H](Cc1c[nH]c2ccccc12)C(=O)O [YSTCFIMGGGWKWKWENGKWKWKW]
- MIC [1]: > 128 µM
- MIC [9]: ≥ 128 µM
- MIC [6]: 32 µM (≈ 99 µg/mL)
- MIC [10]: > 128 µM
- MIC [11]: > 128 µM
- MIC [12]: ≥ 128 µM

SMILES: CC[C@H](C)[C@H](NC(=O)[C@@H]1CCCN1C(=O)[C@H](CCCN=C(N)N)NC(=O)[C@H](CCCN=C(N)N)NC(=O)[C@H](Cc1ccccc1)NC(=O)[C@@H](N)CCCN=C(N)N)C(=O)N[C@@H](CCCN=C(N)N)C(=O)N[C@@H](CCCN=C(N)N)C(=O)N[C@@H](CCCN=C(N)N)C(=O)N1CCC[C@H]1C(=O)N[C@H](C(=O)N[C@@H](CCCN=C(N)N)C(=O)N1CCC[C@H]1C(=O)N1CCC[C@H]1C(=O)N[C@@H](Cc1ccccc1)C(=O)N[C@@H](Cc1c[nH]c2ccccc12)C(=O)N[C@@H](CCCN=C(N)N)C(=O)O)[C@@H](C)CC [RFRRPIRRRPIRPPFWR]
- MIC [8]: 8 µM (≈ 18.9 µg/mL)
